Test results from patent publication US9718788B2, “Heteroaryl compounds useful as inhibitors of E1 activating enzymes” (MILLENNIUM PHARMACEUTICALS, INC., priority 2006, dated 2017).

Biological target: T1, recombinant human NAE enzyme (Homo sapiens, UniProt Q8TBC4)
T1 construct: His (N); made in house; host or cells: Sf9 insect cells (baculovirus, Bac-to-Bac)
T1 sequence (Q8TBC4 1-463): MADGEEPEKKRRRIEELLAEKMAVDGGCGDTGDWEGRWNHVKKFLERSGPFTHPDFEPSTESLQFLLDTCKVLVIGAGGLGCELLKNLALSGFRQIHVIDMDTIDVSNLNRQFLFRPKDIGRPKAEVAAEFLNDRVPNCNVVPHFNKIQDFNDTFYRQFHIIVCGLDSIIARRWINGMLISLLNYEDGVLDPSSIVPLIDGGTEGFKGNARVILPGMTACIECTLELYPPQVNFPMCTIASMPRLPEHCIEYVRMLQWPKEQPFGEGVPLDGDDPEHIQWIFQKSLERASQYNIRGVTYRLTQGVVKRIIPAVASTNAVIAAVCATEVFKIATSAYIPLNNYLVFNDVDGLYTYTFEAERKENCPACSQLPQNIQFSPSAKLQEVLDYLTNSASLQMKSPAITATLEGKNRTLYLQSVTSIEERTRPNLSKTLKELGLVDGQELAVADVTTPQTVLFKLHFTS
T1 sequence (Q13564 1-534 partner): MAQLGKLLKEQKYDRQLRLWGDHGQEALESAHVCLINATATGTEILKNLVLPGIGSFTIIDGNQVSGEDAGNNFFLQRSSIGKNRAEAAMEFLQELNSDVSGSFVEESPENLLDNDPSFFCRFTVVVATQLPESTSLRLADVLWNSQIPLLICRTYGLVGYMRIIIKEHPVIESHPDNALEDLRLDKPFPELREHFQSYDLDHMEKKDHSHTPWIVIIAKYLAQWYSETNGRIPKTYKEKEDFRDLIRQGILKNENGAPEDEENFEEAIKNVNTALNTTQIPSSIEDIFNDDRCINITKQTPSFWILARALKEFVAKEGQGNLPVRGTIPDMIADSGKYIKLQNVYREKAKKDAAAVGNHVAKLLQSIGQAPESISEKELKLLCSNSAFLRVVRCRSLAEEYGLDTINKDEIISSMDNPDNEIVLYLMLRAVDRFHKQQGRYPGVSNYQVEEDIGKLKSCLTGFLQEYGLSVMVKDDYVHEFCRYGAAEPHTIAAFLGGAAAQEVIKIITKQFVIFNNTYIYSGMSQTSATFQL
Test: Nedd8-Activating Enzyme (NAE) HTRF Assay
Assay type: biochemical
Conditions: 20 μM ATP
Description: Following manufacturer instructions, baculoviruses were generated with the Bac-to-Bac Expression System (Invitrogen) for the following proteins: untagged NAEα (APPBP1; NP_003896.1), N-terminally His-tagged NAEJ (UBE1C; NP_003959.3), untagged SAEα (SAE1; NP_005491.1), N-terminally His-tagged SAE3 (UBA2; NP_005490.1), N-terminally His-tagged murine UAE (UBE1X; NP_033483). NAEα/His-NAEβ and SAEα/His-SAEβ complexes were generated by co-infection of Sf9 cells, which were harvested after 48 hours. His-mUAE was generated by single infection of Sf9 cells and harvested after 72 hours. Expressed proteins were purified by affinity chromatography (Ni-NTA agarose, Qiagen) using standard buffers. Nedd8-Activating Enzyme (NAE) HTRF Assay. The NAE enzymatic reaction totaled 50 μL and contained 50 mM HEPES (pH 7.5), 0.05% BSA, 5 mM MgCl2, 20 μM ATP, 250 μM GSH, 0.01 μM Ubc12-GST, 0.075 μM Nedd8-Flag and 0.20 nM recombinant human NAE enzyme. The enzymatic reaction mixture, with and without compound inhibitor, was incubated at room temperature 24° C. for 105 minutes in a 384-well plate before termination with 25 μL of Stop/Detection buffer (0.1M HEPES pH 7.5, 0.05% Tween20, 20 mM EDTA, 410 mM KF, 0.53 nM Europium-Cryptate labeled monoclonal anti-FLAG M2 antibody (CisBio International) and 8.125 μg/mL PHYCOLINK goat anti-GST allophycocyanin (XL-APC) antibody (Prozyme)). After incubation for 1 hour at 24° C., quantification of the FRET was performed on the Analyst™ HT 96.384 (Molecular Devices).

Row | Compound | IC50 (bound given in nM) | IC50 (bound given in μM)
1 | NS(=O)(=O)OC[C@H]1C[C@@H](Nc2cc(N[C@H]3CCc4c(F)cccc43)ncn2)[C@H](O)[C@@H]1O [Compound I-1, {(1R,2R,3S,4R)-4-[(6-{[(1S)-4-fluoro-2,3-dihydro-1H-inden-1-yl]amino}-pyrimidin-4-yl)-amino]-2,3-dihydroxycyclopentyl}methyl sulfamate] | ≤ 500 nM | 
2 | CO[C@H]1Cc2ccccc2[C@H]1Nc1cc(N[C@@H]2C[C@H](COS(N)(=O)=O)[C@@H](O)[C@H]2O)ncn1 [Compound I-2, {(1R,2R,3S,4R)-2,3-dihydroxy-4-[(6-{[(1R,2S)-2-methoxy-2,3-dihydro-1H-inden-1-yl]-amino}pyrimidin-4-yl)amino]cyclopentyl}methyl sulfamate] | ≤ 500 nM | 
3 | NS(=O)(=O)OC[C@H]1C[C@@H](Nc2ncnc3[nH]cnc23)[C@H](O)[C@@H]1O [Compound I-3, [(1R,2R,3S,4R)-2,3-dihydroxy-4-(9H-purin-6-ylamino)cyclopentyl]methyl sulfamate] | ≤ 500 nM | 
4 | NS(=O)(=O)OC[C@H]1C[C@@H](Nc2ccnc(NCC3CCCCC3)n2)[C@H](O)[C@@H]1O [Compound I-4, [(1R,2R,3S,4R)-4-({2-[(cyclohexylmethyl)amino]pyrimidin-4-yl}amino)-2,3-dihydroxycyclopentyl]methyl sulfamate] | > 500 nM | < 10000 nM
5 | NS(=O)(=O)OC[C@@H]1C[C@@H](Nc2cc(N[C@H]3CCc4ccccc43)ncn2)C[C@@H]1O [Compound I-5, [(1S,2S,4R)-4-({6-[(1S)-2,3-dihydro-1H-inden-1-ylamino]pyrimidin-4-yl}amino)-2-hydroxycyclopentyl]methyl sulfamate] | ≤ 500 nM | 
6 | NS(=O)(=O)OC[C@H]1C[C@@H](Nc2cc(N[C@H]3CCc4c(F)ccc(F)c43)ncn2)[C@H](O)[C@@H]1O [Compound I-6, {(1R,2R,3S,4R)-4-[(6-{[(1S)-4,7-difluoro-2,3-dihydro-1H-inden-1-yl]amino}-pyrimidin-4-yl)amino]-2,3-dihydroxycyclopentyl}methyl sulfamate] | ≤ 500 nM | 
7 | NS(=O)(=O)OC[C@H]1C[C@@H](Nc2ccnc(NCc3ccccc3)n2)[C@H](O)[C@@H]1O [Compound I-7, ((1R,2R,3S,4R)-4-{[2-(benzylamino)pyrimidin-4-yl]amino}-2,3-dihydroxycyclopentyl)methyl sulfamate] | > 500 nM | < 10000 nM
8 | NS(=O)(=O)OC[C@H]1C[C@@H](Nc2cc(N[C@@H]3CCc4ccccc43)ncn2)[C@H](O)[C@@H]1O [Compound I-8, [(1R,2R,3S,4R)-4-({6-[(1R)-2,3-dihydro-1H-inden-1-ylamino]pyrimidin-4-yl}-amino)-2,3-dihydroxycyclopentyl]methyl sulfamate] | ≤ 500 nM | 
9 | NS(=O)(=O)OC[C@H]1C[C@@H](Nc2ncnc3[nH]c(-c4ccccc4)nc23)[C@H](O)[C@@H]1O [Compound I-9, {(1R,2R,3S,4R)-2,3-dihydroxy-4-[(8-phenyl-9H-purin-6-yl)amino]cyclopentyl}-methyl sulfamate] | ≤ 500 nM | 
10 | CC1CC(Nc2nccc(N[C@@H]3C[C@H](COS(N)(=O)=O)[C@@H](O)[C@H]3O)n2)c2ccccc21 (stereo partly drawn) [Compound I-10, [(1R,2R,3S,4R)-2,3-dihydroxy-4-({2-[(3-methyl-2,3-dihydro-1H-inden-1-yl)-amino]pyrimidin-4-yl}amino)cyclopentyl]methyl sulfamate] | ≤ 500 nM | 
11 | NS(=O)(=O)OC[C@@H]1C[C@@H](Nc2cc(N[C@H]3CCc4ccccc43)ncn2)[C@H](O)[C@@H]1O [Compound I-11, [(1S,2R,3S,4R)-4-({6-[(1S)-2,3-dihydro-1H-inden-1-ylamino]pyrimidin-4-yl}-amino)-2,3-dihydroxycyclopentyl]methyl sulfamate] | ≤ 500 nM | 
12 | NS(=O)(=O)OC[C@H]1C[C@@H](Nc2cc(N[C@H]3CCCc4ccccc43)ncn2)[C@H](O)[C@@H]1O [Compound I-12, [(1R,2R,3S,4R)-2,3-dihydroxy-4-({6-[(1S)-1,2,3,4-tetrahydronaphthalen-1-ylamino]pyrimidin-4-yl}amino)cyclopentyl]methyl sulfamate] | ≤ 500 nM | 
13 | Cc1nc(N)cc(N[C@@H]2C[C@H](COS(N)(=O)=O)[C@@H](O)[C@H]2O)n1 [Compound I-13, {(1R,2R,3S,4R)-4-[(6-amino-2-methylpyrimidin-4-yl)amino]-2,3-dihydroxycyclopentyl}methyl sulfamate] |  | > 10000 nM
14 | NS(=O)(=O)OC[C@H]1C[C@@H](Nc2cc(NCC3CCCCC3)ncn2)[C@H](O)[C@@H]1O [Compound I-14, [(1R,2R,3S,4R)-4-({6-[(cyclohexylmethyl)amino]pyrimidin-4-yl}amino)-2,3-dihydroxycyclopentyl]methyl sulfamate] | ≤ 500 nM | 

Next, values leading:

Row | IC50 (bound given in nM) | IC50 (bound given in μM) | Compound
15 | ≤ 500 nM |  | CC1(C)C[C@H](Nc2nccc(N[C@@H]3C[C@H](COS(N)(=O)=O)[C@@H](O)[C@H]3O)n2)c2ccccc21 [Compound I-15, {(1R,2R,3S,4R)-4-[(2-{[(1S)-3,3-dimethyl-2,3-dihydro-1H-inden-1-yl]amino}-pyrimidin-4-yl)amino]-2,3-dihydroxycyclopentyl}methyl sulfamate]
16 | > 500 nM | < 10000 nM | NS(=O)(=O)OC[C@H]1C[C@@H](NC(=O)c2cccnc2)[C@H](O)[C@@H]1O [Compound I-16, {(1R,2R,3S,4R)-2,3-dihydroxy-4-[(pyridin-3-ylcarbonyl)amino]cyclopentyl}-methyl sulfamate]
17 | ≤ 500 nM |  | NS(=O)(=O)OC[C@H]1C[C@@H](Nc2cc(N[C@H]3CCc4cc(F)c(F)cc43)ncn2)[C@H](O)[C@@H]1O [Compound I-17, {(1R,2R,3S,4R)-4-[(6-{[(1S)-5,6-difluoro-2,3-dihydro-1H-inden-1-yl]amino}-pyrimidin-4-yl)amino]-2,3-dihydroxycyclopentyl}methyl sulfamate]
18 | ≤ 500 nM |  | Cc1nc(N[C@H]2CCc3ccccc32)cc(N[C@@H]2C[C@H](COS(N)(=O)=O)[C@@H](O)[C@H]2O)n1 [Compound I-18, [(1R,2R,3S,4R)-4-({6-[(1S)-2,3-dihydro-1H-inden-1-ylamino]-2-methylpyrimidin-4-yl}-amino)-2,3-dihydroxycyclopentyl]methyl sulfamate]
19 | ≤ 500 nM |  | NS(=O)(=O)OC[C@H]1C[C@@H](Nc2cc(N[C@H]3CCc4cc(Cl)ccc43)ncn2)[C@H](O)[C@@H]1O [Compound I-19, {(1R,2R,3S,4R)-4-[(6-{[(1S)-5-chloro-2,3-dihydro-1H-inden-1-yl]amino}-pyrimidin-4-yl)-amino]-2,3-dihydroxycyclopentyl}methyl sulfamate]
20 |  | > 10000 nM | CN(Cc1ccccc1)c1nccc(N[C@@H]2C[C@H](COS(N)(=O)=O)[C@@H](O)[C@H]2O)n1 [Compound I-20, [(1R,2R,3S,4R)-4-({2-[benzyl(methyl)amino]pyrimidin-4-yl}amino)-2,3-dihydroxycyclopentyl]methyl sulfamate]
21 | ≤ 500 nM |  | CC1(C)C[C@H](Nc2cc(N[C@@H]3C[C@H](COS(N)(=O)=O)[C@@H](O)[C@H]3O)ncn2)c2ccccc21 [Compound I-21, {(1R,2R,3S,4R)-4-[(6-{[(1S)-3,3-dimethyl-2,3-dihydro-1H-inden-1-yl]amino}-pyrimidin-4-yl)amino]-2,3-dihydroxycyclopentyl}methyl sulfamate]
22 |  | > 10000 nM | CN(Cc1ccccc1)c1cc(N[C@@H]2C[C@H](COS(N)(=O)=O)[C@@H](O)[C@H]2O)ncn1 [Compound I-22, [(1R,2R,3S,4R)-4-({6-[benzyl(methyl)amino]pyrimidin-4-yl}amino)-2,3-dihydroxycyclopentyl]methyl sulfamate]
